From US20150079089A1, “EMP2 REGULATES ANGIOGENESIS IN CANCER CELLS THROUGH INDUCTION OF VEGF” (THE REGENTS OF THE UNIVERSITY OF CALIFORNIA, priority 2012, published 2015)
Entries after “also recorded” stand apart in the source; their conditions may differ.

What was measured:
HIF-1a = HIF-1a expression by Western blot in HEC1a/EMP2 cells treated with kinase inhibitors in a hypoxic chamber; assay type: cell-based, human; details: 24 hrs, 1.0% hypoxic chamber
Description: To determine if EMP2 expression altered VEGF expression and secretion, cells were placed in a hypoxic chamber for 24 hours. EMP2 expression directly correlated with VEGF protein levels (FIG. 4B) as well as with secreted protein (FIG. 4C). […] Western blot analysis was carried out by Cells were lysed in Laemmli buffer. Proteins were separated by SDS-PAGE, transferred to a nitrocellulose membrane (Amersham Biosciences), and stained with Ponceau S (Sigma-Aldrich, St. Louis, Mo.) to determine transfer efficiency. Membranes were blocked with 10% low fat milk in PBS containing 0.1% Tween 20 and probed with EMP2 antisera (1:1000), anti-VEGF (Santa Cruz Biotech), antiHIF-1a (1:800; BD Biosciences), anti-PPAR-y (Santa Cruz Biotech), anti-p-Src (Cell Signaling, Danvers). Protein bands were visualized using a horseradish peroxidase (HRP)-labeled secondary antibody (BD Biosciences) followed by chemiluminescence (ECL; Amersham Biosciences). Band intensities were quantified using the NIH program Image J as above. To account for loading variability β-actin was used to normalize each sample. At least three independent experiments were performed and, where indicated, the results were evaluated for statistical significance using a Student's t-test (unpaired, one-tail). A level of P<0.05 was considered to be statistically significant.
In some experiments, inhibitors were added to determine the contribution of specific pathways to HIF-1a expression. HEC1a/EMP2 cells were treated with 10 μM of the kinase inhibitor Ly294002 (Cell Signaling), the EGFR inhibitor Erlotinib e; 10 μM, Genentech), or the Src family tyrosine kinase inhibitor Dasatinib e; 10 μM, Bristol-Myers Squibb). Efficacy of the inhibitors was tested at the manufacturer's recommended dosage, and potential toxicity was measured using trypan-blue exclusion. Samples were harvested and probed by SDS-PAGE/Western blot analysis as above […]
Using common inhibitors of AKT, PI3-kinase, EGFR, and Src tyrosine kinases, HEC1a/EMP2 cells were treated with these agents while in a hypoxic chamber.

[1] = system: human aortic endothelial cell (HAEC); assay: Boyden chamber migration of HAEC towards cultured tumor cell supernatants; assay type: cell-based; details: added at 10μg/ml to the cultured tumor cell supernatant
Description: FIG. 4 depicts that EMP2 regulates VEGF expression. (A) A Boyden chamber assay was used to determine human aortic endothelial cell (HAEC) response to cultured tumor cell supernatants. In some experiments, the antiVEGF antibody Avastin® which binds soluble VEGF was added at 10μg/ml to the cultured supernatant. (B) The expression of total VEGF was measured using Western blot analysis. EMP2 expression was visualized to verify modulation of EMP2 in the cell lines; β-Actin was used as the loading control. (C) Secreted VEGF was measured using an ELISA. (D) Semi-quantitative expression of VEGF mRNA was determined using RTPCR. The experiment was repeated three times with similar results, and a representative blot is shown. GAPDH expression serves as a loading control. (E) Left, To determine the mechanism for VEGF regulation, HIF-1 a and PP ARy expression was determined using Western blot analysis. β-Actin expression serves as the loading control. Right, Quantization of HIF-1a expression relative to β-Actin for three independent experiments. The data represents the mean±SEM. […] Appropriate vehicle control cells are included. Western blot analysis was used to show the expression of EMP2, HIF-1a, and β-Actin in these cells.
Human umbilical vein endothelial cells (HUVEC) from passage 2 were purchased from BD Biosciences (San Diego, Calif.) and used between passages 3 and 7 for all experiments. […]

HUVEC = details: supernatants of HEC1a/RIBO or HEC1a/shRNA 911; 20 or 50 µg/ml
Source text: Migration assays. […] The experiment was repeated three times.

Row | Molecule | EMP2-induced HIF-1a expression (HIF-1a) | other results
1 | C#Cc1cccc(Nc2ncnc3cc(OCCOC)c(OCCOC)cc23)c1 [erlotinib, Erlotinib] | produced a similar effect; also recorded: sufficient to inhibit its expression | 
2 | Bevacizumab |  | HAEC migration [1]: reduced HAEC migration to control levels
3 | O=c1[nH]c2ccccc2n1C1CCN(Cc2ccc(-c3nc4cc5[nH]cnc5cc4nc3-c3ccccc3)cc2)CC1 [AKTi, Akt inhibitor VIII] | did not alter HIF-1a expression | EMP2-induced HIF-1a expression (HIF-1a; listed as AKT inhibitors): did not suppress
4 | VEGF |  | HUVEC cell tube formation (HUVEC): sufficient to induce HUVEC cell tube formation
5 | CC(C)(C)n1nc(-c2ccc(Cl)cc2)c2c(N)ncnc21 [PP2] | reversed | 
